Where two headings read alike, the source gives them in different places.

In the assay the test system is bacteria.
[1] abbreviates: A. calcoaceticus AC002, agarose dilution.
Where [2] appears, read: E. cloacae ECL007, agarose dilution.
[3] abbreviates: E. coli ECO005, agarose dilution.
Setting [4] is: E. faecalis EFS001, agarose dilution.
[5] abbreviates: E. faecalis EFS008, agarose dilution.
[6] abbreviates: K. pneumoniae KP001, agarose dilution.
Setting [7] is: P. aeruginosa PA004, agarose dilution.
[8] abbreviates: S. aureus SA014, agarose dilution.
Where [9] appears, read: S. aureus SA093, agarose dilution.
Setting [10] is: S. epidermidis SE010, agarose dilution.
The mark [11] stands for this setting: S. maltophilia SMA002, agarose dilution.
The mark [12] stands for this setting: S. marcescens SMS003, agarose dilution.

One may read the MIC as the smallest concentration in the dilution series that meets the test's criterion for growth inhibition. As to I L K K W P W W W R K [MBI 11D15CN], the MIC stood at 32 µg/mL (E. faecalis EFS002), 4 µg/mL (E. faecium EFM003) and 8 µg/mL (S. aureus SA009).

As for I L K K W P W W P W R R K [MBI 11M4], the MIC reads like this: (E. faecalis EFS001) 32 µg/mL; (E. faecium EFM001) 32 µg/mL; (S. aureus SA008) 8 µg/mL.

For the substance I L K K Y P W Y P W R R K [MBI 11A5CN], the MIC is above 128 µg/mL (A. calcoaceticus AC001); above 128 µg/mL (E. cloacae ECL007); 128 µg/mL (E. coli ECO003); 32 µg/mL (E. faecalis EFS002); 4 µg/mL (E. faecium EFM003); above 128 µg/mL (K. pneumoniae KP001). The same substance registered an MIC (P. aeruginosa PA003) above 128 µg/mL, an MIC (S. aureus SA002) of 6 µg/mL, an MIC (S. maltophilia SMA002) above 128 µg/mL and an MIC (S. marcescens SMS003) above 128 µg/mL.

Turning to I L K K W P W W P W R R K [MBI 11ACN], the MIC was 2 µg/mL (A. calcoaceticus AC002); above 128 µg/mL (E. cloacae ECL007); 16 µg/mL (E. coli ECO005); 8 µg/mL (E. faecalis EFS004); 64 µg/mL (E. faecalis EFS008); 16 µg/mL (K. pneumoniae KP001). Also, the MIC is above 128 µg/mL (P. aeruginosa PA004); 8 µg/mL (S. aureus SA014); 4 µg/mL (S. epidermidis SE010); 64 µg/mL (S. maltophilia SMA002); above 128 µg/mL (S. marcescens SMS003).

I L K K W P W [MBI 11D10M8] gave an MIC (E. faecalis EFS002) of 32 µg/mL, an MIC (E. faecium EFM003) of 32 µg/mL and an MIC (S. aureus SA008) of 32 µg/mL.

As for I L K K F P W F P W R R K [MBI 11A6CN], the MIC by setting is: (A. calcoaceticus AC002) 2 µg/mL; (E. cloacae ECL007) above 128 µg/mL; (E. coli ECO005) 16 µg/mL; (E. faecalis EFS001) 1 µg/mL; (E. faecalis EFS004) 64 µg/mL; (E. faecalis EFS008) 8 µg/mL. The substance further returned an MIC (E. faecium EFM003) of 2 µg/mL; a minimal inhibitory concentration (MIC) (K. pneumoniae KP001) of 32 µg/mL; an MIC (P. aeruginosa PA004) above 128 µg/mL; an MIC (S. aureus SA014) of 4 µg/mL; a minimum inhibitory concentration (MIC) (S. aureus SA016) of 2 µg/mL.

Regarding I L K W P W W P W R K [MBI 11B5CN], the MIC reads like this: under setting [1], 4 µg/mL; under setting [2], above 128 µg/mL; under setting [3], 16 µg/mL; under setting [4], 2 µg/mL; (E. faecalis EFS002) 16 µg/mL; under setting [5], 8 µg/mL. Moreover, the MIC reads like this: (E. faecium EFM002) 1 µg/mL; under setting [6], 16 µg/mL; under setting [7], above 128 µg/mL; (S. aureus SA005) 2 µg/mL; under setting [8], 2 µg/mL; under setting [9], 1 µg/mL. This substance showed an MIC under setting [10] of 1 µg/mL, an MIC under setting [11] of 64 µg/mL and an MIC under setting [12] above 128 µg/mL.

For K R R W V W W V W R L I [MBI 11F4CNR], the MIC is 16 µg/mL (A. calcoaceticus AC002); 32 µg/mL (E. cloacae ECL007); 32 µg/mL (E. coli ECO005); 32 µg/mL (E. faecalis EFS008); 32 µg/mL (K. pneumoniae KP001); 64 µg/mL (P. aeruginosa PA004). This substance gave an MIC (S. aureus SA093) of 8 µg/mL, an MIC (S. epidermidis SE010) of 3 µg/mL, an MIC (S. maltophilia SMA002) of 32 µg/mL and a minimum inhibitory concentration (MIC) (S. marcescens SMS003) above 128 µg/mL.

In the case of I L K K P W W P W R R K [MBI 11G3CN], the MIC is, setting by setting: (E. cloacae ECL007) above 128 µg/mL; (E. coli ECO003) 64 µg/mL; (E. faecalis EFS002) 64 µg/mL; (E. faecium EFM002) 32 µg/mL; (K. pneumoniae KP001) above 128 µg/mL; (P. aeruginosa PA003) above 128 µg/mL. For the same substance, the MIC reads like this: (S. aureus SA009) 8 µg/mL; (S. maltophilia SMA001) above 128 µg/mL; (S. marcescens SMS004) above 128 µg/mL.

For the substance I L K K W P W W P W R R [MBI 11G7ACN], the MIC (A. calcoaceticus AC002) is 4 µg/mL; the MIC (E. cloacae ECL007) is above 32 µg/mL; the MIC (E. coli ECO002) was determined as 16 µg/mL; the MIC (E. faecalis EFS008) was found to be 32 µg/mL; the MIC (E. faecium EFM001) turned out to be 8 µg/mL; the MIC (K. pneumoniae KP002) was above 32 µg/mL. The substance further came in with an MIC (P. aeruginosa PA006) above 32 µg/mL; an MIC (S. aureus SA010) of 1 µg/mL; an MIC (S. epidermidis SE002) of 4 µg/mL; an MIC (S. maltophilia SMA001) of 32 µg/mL; an MIC (S. marcescens SMS004) above 32 µg/mL.

In the case of “I L K K W P W W P W R R I M [MBI 11D13H]”, the MIC was 64 µg/mL (A. calcoaceticus AC001); above 64 µg/mL (E. cloacae ECL007); 32 µg/mL (E. coli ECO002); 16 µg/mL (E. faecalis EFS004); above 64 µg/mL (K. pneumoniae KP002); above 64 µg/mL (P. aeruginosa PA004). The substance further yielded an MIC (S. aureus SA025) of 4 µg/mL, an MIC (S. maltophilia SMA002) above 64 µg/mL and an MIC (S. marcescens SMS004) above 64 µg/mL.

On to “ILKKWPWWPWRRMILKKAGS [MBI 11D5CN]”, for which the MIC was above 64 µg/mL (A. calcoaceticus AC001); above 64 µg/mL (E. cloacae ECL007); 64 µg/mL (E. coli ECO003); 16 µg/mL (E. faecalis EFS002); 1 µg/mL (E. faecium EFM003); above 64 µg/mL (K. pneumoniae KP001). The MIC was above 64 µg/mL (P. aeruginosa PA003), 8 µg/mL (S. aureus SA005), 64 µg/mL (S. maltophilia SMA001) and above 64 µg/mL (S. marcescens SMS004).

As for I L K K W P W W P W R R K [MBI 11A], the MIC is above 64 µg/mL (A. calcoaceticus AC001); above 64 µg/mL (E. cloacae ECL007); above 64 µg/mL (E. coli ECO005); 32 µg/mL (E. faecalis EFS004); 64 µg/mL (K. pneumoniae KP001); above 64 µg/mL (P. aeruginosa PA024). Further, the MIC was 4 µg/mL (S. aureus SA002), above 64 µg/mL (S. maltophilia SMA002) and above 64 µg/mL (S. marcescens SMS003).

In the case of “ILRWPWWPWRRKDMILKKAGS [MBI 11B18CN]”, the MIC was 2 µg/mL (A. calcoaceticus AC002); above 128 µg/mL (E. cloacae ECL007); 32 µg/mL (E. coli ECO005); 4 µg/mL (E. faecalis EFS008); 32 µg/mL (K. pneumoniae KP001); above 128 µg/mL (P. aeruginosa PA004). Besides, the MIC is, setting by setting: (S. aureus SA093) 2 µg/mL; (S. epidermidis SE010) 4 µg/mL; (S. maltophilia SMA002) 64 µg/mL; (S. marcescens SMS003) above 128 µg/mL.

In the case of I L K K W P W W P W R R K [MBI 11CNX1], the MIC is above 64 µg/mL (A. calcoaceticus AC001); above 64 µg/mL (E. cloacae ECL007); 64 µg/mL (E. coli ECO005); 16 µg/mL (E. faecalis EFS004); above 64 µg/mL (K. pneumoniae KP001); above 64 µg/mL (P. aeruginosa PA024). For the same substance, the MIC is 2 µg/mL (S. aureus SA006), above 64 µg/mL (S. maltophilia SMA002) and above 64 µg/mL (S. marcescens SMS003).

For the substance I L R W P W W P W R R A [MBI 11H12CN], the MIC was 4 µg/mL under setting [1]; above 128 µg/mL under setting [2]; 16 µg/mL under setting [3]; 2 µg/mL under setting [4]; 8 µg/mL under setting [5]; 16 µg/mL under setting [6]. In addition, the MIC is above 128 µg/mL under setting [7]; 2 µg/mL under setting [8]; 1 µg/mL under setting [9]; 4 µg/mL under setting [10]; 64 µg/mL under setting [11]; above 128 µg/mL under setting [12].

On to I L K K W P W P W R R K [MBI 11A4CN], for which the MIC reads like this: (A. calcoaceticus AC002) 8 µg/mL; (E. cloacae ECL007) above 128 µg/mL; (E. coli ECO003) 32 µg/mL; (E. faecalis EFS002) 64 µg/mL; (E. faecium EFM001) 32 µg/mL; (K. pneumoniae KP001) above 128 µg/mL. Moreover, the minimal inhibitory concentration (MIC) by setting is: (P. aeruginosa PA004) above 128 µg/mL; (S. aureus SA005) 2 µg/mL; (S. epidermidis SE002) 8 µg/mL; (S. maltophilia SMA002) above 128 µg/mL; (S. marcescens SMS004) above 128 µg/mL.

As for I L R R W P W W P W R K [MBI 11B2CN], the MIC is, setting by setting: (A. calcoaceticus AC001) 64 µg/mL; (E. cloacae ECL007) above 128 µg/mL; (E. coli ECO003) 16 µg/mL; (E. faecalis EFS004) 8 µg/mL; (E. faecium EFM001) 8 µg/mL; (K. pneumoniae KP002) 64 µg/mL. The MIC was above 128 µg/mL (P. aeruginosa PA003), 2 µg/mL (S. aureus SA005), 64 µg/mL (S. maltophilia SMA002) and above 128 µg/mL (S. marcescens SMS004).

Take I L K K F P F W P W R R K [MBI 11A7CN]: the MIC runs as follows: under setting [1], 4 µg/mL; under setting [2], above 128 µg/mL; under setting [3], 8 µg/mL; under setting [4], 2 µg/mL; (E. faecalis EFS002) 16 µg/mL; under setting [5], 4 µg/mL. In addition, the MIC runs as follows: (E. faecium EFM003) 2 µg/mL; under setting [6], 8 µg/mL; under setting [7], above 128 µg/mL; (S. aureus SA009) 2 µg/mL; under setting [8], 4 µg/mL; under setting [9], 1 µg/mL. Moreover, the MIC under setting [10] is 4 µg/mL, the MIC under setting [11] amounted to 64 µg/mL and the MIC under setting [12] is above 28 µg/mL.

(Values after patent US6503881B2 (priority 1996, dated 2003).)
